Data reported in patent publication US11661439B2, “Peptide hydrogels and use thereof” (The United States of America, as represented by the …, priority 2017, dated 2023).
Non-standard residues stand in square brackets, D forms with d. Residues, ends and D or L forms follow the SMILES beside them.

Assays:
[1] = TEM analysis of peptide fibrils; format: physicochemical; settings: 30 independent measurements
Protocol: FIG. 4. Fibril visualization of β-hairpin peptide hydrogels. Transmission Electron Microscopy (TEM) images of peptide fibrils and frequency distributions determined from 30 independent measurements (scale bar=100 nm).
Transmission electron microscopy (TEM) analysis. The hydrogel nanostructure of the peptide gels was observed using a Hitachi H-7650 transmission electron microscope at a voltage of 80 kV. A 1 wt % solution of peptide and an equal volume of buffer (50 mM HEPES containing 300 mM NaCl, pH 7.4) was mixed and incubated overnight at 37° C. to allow for gelation. The next day, samples for TEM analysis were prepared by suspending 5 μL of the resulting peptide gel in 195 μL of water to yield a 40-fold dilution. Small amounts (5 μL) of each diluted gel solution were applied to separate carbon coated copper grids. After 1 min, the grid was washed with water. Then, a 1 w/v % uranyl acetate aqueous solution was placed on each grid for negative staining. Excess staining solution was blotted away, left to air dry, and the grids were imaged immediately.

[2] = tested on: human dermal fibroblasts (HDFs); experiment: 3D cell encapsulation culture of HDFs in gels; format: cell-based
Protocol: 3D cell culture in peptide gels. Peptides were initially dissolved in 285 mM sucrose at 1 wt % on ice and mixed with an equal volume of cell suspension in serum-free HEPES-supplemented DMEM (2×10^6 cells mL^−1). The cell-peptide suspension (5×10^4 cells per 50 μL per insert) was transferred to a Falcon cell culture insert (for 24-well plates, 8 μm pore size, Corning) and incubated at 37° C. for 30 min for gelation. These inserts were previously coated with the empty hydrogel (30 μL per insert) to avoid cell adhesion to the bottom surface of the inserts. After gelation of cell-peptide solution, 500 μL of Essential 8 Medium were added to the top and bottom of the gels. Type I collagen gels were prepared following manufacturer's instructions. Briefly, a 0.4 wt % collagen solution was prepared on ice and mixed with cell suspension in serum-free DMEM (4×10^6 cells mL^−1) at a ratio of 3:1 (0.3 wt % collagen, 1×10^6 cells mL^−1).
Cell viability assay. Cell viability was evaluated by live and dead cell staining after 2D and 3D cell culture. Serum-free DMEM containing 1 μM calcein-AM and 2 μM ethidium homodimer-1 was added to the cells (200 μL per well for 2D culture and 500 μL each to the top and bottom of the gels for 3D culture). After incubation at 37° C. for 30 min, live and dead cells were visualized using EVOS FL Auto Cell Imaging System (Thermo Fisher Scientific). For the pseudo-colored composite image of varying heights of encapsulated cells, images of the live-stained cells were captured every 5 μm of height. Then Z-stack images for each 100 μm were flattened using the EVOS software, and the flattened images were pseudo-colored and merged using ImageJ.
Cell proliferation assay. A cell proliferation assay was performed using Cell Counting Kit-8 (CCK-8, Dojindo Molecular Technologies) for 2D and 3D cell culture. […] Subsequently, media were transferred to 96-well plates (150 μL per well) and their absorbance measured at 450 nm relative to control viabilities from day 0 for 2D cell culture and day 1 for 3D cell culture. […]

[3] = tested on: RFP-HDFs; experiment: Hydrogel-based in vivo cell delivery with RFP fluorescence imaging; set-up: species or system athymic nude mice
From the text: In vivo studies. Six- to eight-week-old non-tumor bearing female athymic nude mice were used for this experiment (n=3). Animal care was in accordance with the procedures outlined in the Guide for Care and Use of Laboratory Animals (National Research Council, 1996; National Academy Press, Washington, D.C.) and animal protocols were approved by the Frederick National Laboratory for Cancer Research (FNLCR) Institutional Animal Care and Use Committee.
Hydrogel-based in vivo cell transplantation. RFP-HDFs were encapsulated in 0.5 wt % AcVES3-RGDV at 10^7 cells mL^−1 as described in the 3D cell culture section. After gelation, the cell-peptide gel (10^6 cells per 100 μL) was injected into the left dorsal region of the mouse and as a control, RFP-HDF suspension in serum-free DMEM (10^6 cells per 100 μL) was injected into the right dorsal region of the mouse.
In vivo fluorescence imaging. Multispectral fluorescence imaging was performed daily (Monday-Friday) for 42 days using a Maestro Flex imager (PerkinElmer). Briefly, mice were anesthetized for 3-4 minutes in an induction chamber with 3% isoflurane with filtered air (0.2 μm filter) used as a carrier at a flow rate of 1 liter per minute. After isoflurane induction, the mice were transferred to an imaging chamber, where isoflurane was reduced to 2% and O2 was used as a carrier. The imaging platform was kept at 37° C. to maintain the mouse's internal temperature. Image acquisition (Maestro software, ver. 2.10.0) of the RFP fluorescence signal utilized a 533±26 nm excitation filter (placed in front of the 300 W xenon excitation source), a 580 nm long-pass filter (placed in front of the CCD) and implementing a multispectral imaging acquisition of 550-720 nm range, 10 nm increment, auto exposure (typically 0.5-5 seconds per emission wavelength), with a 2×2 pixel binning, resulting in a stack of images (image cube). RFP signal was distinguished from the tissue autofluorescence by employing vendor specified unmixing protocol. Quantitative analysis was performed by drawing a standard circular region of interest (ROI) over the injection site of the unmixed RFP component image. The total RFP signal (scaled counts second^−1) within each ROI was measured and plotted as a function of time.
Collection of RFP-HDFs from the tissue graft. After in vivo imaging on day 42, mice were euthanized using CO2 and ex vivo images (Maestro Software) were acquired by exposing the cell-peptide gel injection site. Image acquisition and processing were performed with the same parameters as performed for in vivo imaging as stated above. Utilizing the unmixed RFP image to guide resecting the RFP-positive tissue, the RFP positive cells were resected and then homogenized by squeezing them through a cell strainer. The collected cells were then cultured on a tissue culture plate with FBS-supplemented DMEM for 10 days and observed using an EVOS FL Auto Cell Imaging System.

In the case of `CC(=O)N[C@H](C(=O)N[C@@H](CCC(=O)O)C(=O)N[C@H](C(=O)N[C@@H](CO)C(=O)N[C@H](C(=O)N[C@@H](CO)C(=O)N[C@H](C(=O)N[C@@H](CCC(=O)O)C(=O)N[C@H](C(=O)N1CCC[C@@H]1C(=O)N1CCC[C@H]1C(=O)N[C@H](C(=O)N[C@@H](CCC(=O)O)C(=O)N[C@H](C(=O)N[C@@H](CO)C(=O)N[C@H](C(=O)N[C@@H](CCC(=O)O)C(=O)N[C@H](C(=O)N[C@@H](CCC(=O)O)C(=O)N[C@H](C(=O)NCC(=O)NCC(=O)NCC(=O)NCC(=O)N[C@@H](CCCNC(=N)N)C(=O)NCC(=O)N[C@@H](CC(=O)O)C(=O)N[C@H](C(N)=O)C(C)C)C(C)C)C(C)C)C(C)C)C(C)C)[C@@H](C)O)C(C)C)C(C)C)C(C)C)C(C)C)C(C)C` [AcVES3-RGDV] (Ac-VEVSVSVEV[dP]PTEVSVEVEVGGGGRGDV-NH2), the average fibril width [1] is reported as 4.0±0.4 nm, the “cell proliferation rate relative to the collagen gel” value ([2]; 3D culture, Essential 8 Medium) is reported as 2-3 fold and the “cell proliferation of encapsulated HDFs, 3D culture” value ([2]; Essential 8 Medium, one week) is reported as “proliferated well with minimal cell death”. For the same compound, the “distribution of encapsulated cells in the gel” value ([2]; day 4, heights 0-500 μm) was “homogenously distributed throughout the gel matrix”, the “retention of cells after initial injection” value ([3]; 10^6 RFP-HDFs per 100 μL gel) was “over 40 days” and the “slowing of dissipation of injected cells versus cell suspension control” value ([3]; 10^6 RFP-HDFs per 100 μL, dorsal injection, from slopes of the lines) was about 6 fold. For the same compound, the “RFP signal still detected at injection site” value ([3]; day 42) was “approximately 2%”, the “inflammation around the injection site” value ([3]; day 42, dissected subcutaneous tissue) was “no apparent inflammation” and the “localization, retention and engraftment of delivered cells” value ([3]; mouse, in vivo) was “dramatically enhance localization and retention of the delivered cells and also support engraftment”.
